Assay results: patent publication US6680307B1, “Use of ibandronate for promoting osseointegration of endoprostheses” (Roche Diagnostics GmbH, priority 1998, dated 2004)

Legend:
[1] = tested on: bone-tooth implant; conditions: treatment for 4 weeks (1 week before the operation and 3 weeks after); cited from earlier work
[2] = tested on: periprosthetic bone loss; conditions: treatment with higher doses; cited from earlier work
[3] = tested on: titanium implants and hydroxyl apatite-coated implants in the bone of 6 month-old Sprague Dawley rats; experiment: Time sequence of osseointegration of implants in rat femur (Example 1, histomorphometry); assay type: in vivo
Description: (§1) 6-month old female Spregue-Dawley rats were kept in cages and subjected to a 12-hour day and night rhythm. They had free access to food and water. The animals were kept and fed in accordance with legal regulations and the research was carried out with the approval and under the supervision of the Darmstadt Governmental Presidium.
(§2) The animals were divided at random among the various test groups. They were anaethesized by intraperitoneal administration of ketamine (75 mg/kg) and xylazine (5 mg/kg). Both back legs were sharped and disinfected with Betaisadonna solution. Medioparapatellar arthrotomy of the knee joint was carried out under aseptic conditions and the patella was laterally dislocated. The medullary canal was opened distally in the intercondylar notch and the canal was drilled with a 1.0 mm diameter Kirchner wire down to the proximal metaphysis of the femur. A titanium Kirchner wire was then inserted into the right femur and a hydroxyl apatite-coated Kirchner wire into the left femur as far as the proximal metaphysis. The access hole was closed with bone wax, the patella was replaced, the extensor apparatus of the refined leg was reconstructed, the soft tissue was adapted and the skin was closed by an intracutaneous seam. The back legs were then tested for normal post-operative movement. The animals were at liberty to move freely in their cages and the activity and the load on the hind legs was checked daily.
(§3) Ibandronate or 0.9% NaCl was administered daily as per Examples 1 and 2. After the preset treatment time the animals were euthanased in a carbon dioxide chamber and directly afterwards the two femurs were taken out, completely freed from soft tissue and fixed in alcohol for subsequent histerlogical treatment. […] Particular attention was given to the areas where a change in the bone occurred such as an increase or decrease in trabecular bone, a change in bone density, loosening seams on the implant, periostal or endostal changes. Evaluation in this case was purely descriptive.
(§4) Description of production of preparations by the cut microsection technique for producing histological sections of conventional non-cuttable tissue after Prof. Donath. (K. Donath, G. Breuner: A method for the study of undecalcified bones and teeth with attached soft tissue. The Saege-Schliff (sawing and grinding) technique., J. Oral Pathology 1982, 11:318-26). […]
(§5) Histological investigation of bones under the optical microscope gives knowledge about the overall structure and the distribution of bone components. […] Quantitative evaluation of the results was by histomorphometry.
(§6) The bone-covered area on the metal implant was shown and calculated by histomorphometry, using special software. […]

[4] = tested on: titanium implants and hydroxyl apatite-coated implants in the bone of 6-month old rats; experiment: Osseointegration of implants in rat femur at a defined time, daily versus bolus administration (Example 2); assay type: in vivo
Description: as §1, §2, §3, §4, §5, §6

O=P(O)(O)C(Cl)(Cl)P(=O)(O)O [Clodronate]
Osteogenesis (bone formation) compared with untreated patients [1]: more intensive

NCCCC(O)(P(=O)(O)O)P(=O)(O)O [alendronate]
Bone resorption [2]: considerably slowed down

CCCCCN(C)CCC(O)(P(=O)(O)O)P(=O)(O)O [ibandronate, 1-hydroxy-3-(N-methyl-N-pentyl)aminopropyl-1,1-diphosphonic acid]
Temporal advantage after treatment versus untreated group ([3]; 25 μg FAE/kg/d daily s.c.): more than 50%
Time to complete integration of the implant ([3]; 25 μg FAE/kg/d daily s.c., untreated group nearly complete ingrowth after 37 days): 18 days
Time to complete integration ([3]; daily dose of 20 to 30 μg/kg body weight (i.v. equivalent)): 15 to 20 days
Osseointegration compared with the untreated group ([3]; daily subcutaneous ibandronate after implantation, rats): appreciably improved
Increase in osseointegration compared with the control group ([4]; 2a: s.c. 25 μg FAE/kg/d for 15-20 days): 50%
Increase in osseointegration compared with the control group ([4]; 2b: s.c. bolus administration, 25 μg FAE/kg/d): 50%
Difference in osseointegration between bolus-treated groups and control group ([4]; 2b: s.c. bolus administration, total dose of 1, 5 and 25 μg FAE/kg/d): Very significant differences
Difference in osseointegration between bolus administration and cumulative administration ([4]; 2c: bolus versus cumulative administration over the entire period): No significant differences
